Experimental data published in PubChem BioAssay (NCI).
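Grown in 96-well plates, cells were treated for 48 hours with each compound at five concentrations. Insufficient inhibition: endpoint recorded as highest concentration tested. The concentration for 50% growth inhibition is given as GI50. TGI denotes the concentration required for complete inhibition of growth.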

Columns and labels:
Experiment in all cases: NCI anticancer screen, dose series, 48 h
[1] = tested on: RXF 393 renal
[2] = tested on: SNB-19 CNS
[3] = tested on: SK-MEL-28 melanoma
[4] = tested on: SK-MEL-5 melanoma
[5] = tested on: HOP-92 NSCLC
[6] = tested on: SF-295 CNS
[7] = tested on: IGROV1 ovarian
[8] = tested on: MOLT-4 leukemia
[9] = tested on: NCI-H460 lung
[10] = tested on: CCRF-CEM leukemia

Compound	GI50 [1] [µM]	TGI [1] [µM]	GI50 [2] [µM]	TGI [2] [µM]	GI50 [3] [µM]	TGI [3] [µM]	GI50 [4] [µM]	TGI [4] [µM]	GI50 [5] [µM]	TGI [5] [µM]	GI50 [6] [µM]	TGI [6] [µM]	GI50 [7] [µM]	TGI [7] [µM]	GI50 [8] [µM]	TGI [8] [µM]	GI50 [9] [µM]	TGI [9] [µM]	GI50 [10] [µM]	TGI [10] [µM]
CCCCOC(=O)C1OC(O[C@H]2CCC3(C)C(CCC4(C)C3CC=C3C5CC(C)(C)CCC5(C(=O)O)CC[C@]34C)C2(C)C)C(OC2OC(CO)C(O)C(O)C2O)C(OC2OC(CO)C(O)C(O)C2O)C1O (stereo not given in full)	58.5	> 100	22.5	53.6	26.7	52.2	33.1	> 100	33.2	> 100	26	71	> 100	> 100	7.77	36.4	33.3	> 100		
N#CCCN(CCC#N)c1ccc(/C=C2\N=C(c3cc([N+](=O)[O-])ccc3Cl)OC2=O)cc1				> 100		> 100		33.4				> 100		> 100		57.7		> 100		
CC1(C)CCc2c(c3c(c4c(=O)c(O)c(-c5ccc(O)cc5)oc24)OC(C)(C)CC3)O1			33.6	> 100	> 100	> 100	> 100	> 100	14.6	38.2	34.3	> 100	> 100	> 100	37.2	> 100	48.7	> 100	> 100	> 100
O=C(O)CSc1ccc([N+](=O)[O-])cc1[N+](=O)[O-]		> 100		> 100		> 100				> 100		> 100		> 100				> 100		
CN(C)CC[N+]1=Nc2cccc3cccc(c23)N1				> 100		> 100		> 100		> 100		> 100		> 100		> 73.2		> 64.8		> 67.3
CN1C(=O)C(C)(C)C2(SC(C)(C)C2(C)C)N(C)C1=S (stereo not given)		> 100		> 100		> 100				> 100		> 100		> 100		> 100		> 100		> 100
Cc1cc(I)cc(CN(C)CCCCN2CCCCC2)c1O	12.9	32.6	19	45.9	4.21	15.8	3.33	10.7	6.2	38.2	3.05	7.62	17.7	41	7.08	21.8	13.2	26.7		
O=C(COc1ccc(Br)cc1Br)N1N=C(c2ccc([N+](=O)[O-])o2)CC1(O)c1ccccc1 (stereo not given)		15.7		68.2		28		16.1				53.7		75.9		8.98		20.4		14.8
CCOC(=O)CN1C(=O)c2cccc3cc([N+](=O)[O-])cc(c23)C1=O		3.89		32.3		7.39		25.5		6.21				14.8		2.45		17.3		1.5
C/C(CC(=O)CCC(=O)Nc1cccc(C(F)(F)F)c1)=N\NC(=O)NN				> 100		> 100		> 100		> 100		> 100		> 100		> 100		> 100		> 100
CCN(CCO)CC1CCCC2CCCCC21 (stereo not given)		> 100		> 100		> 100		> 100		> 100		> 100		> 100				> 100		
O=C(Nc1ccccc1OC(F)(F)F)Nc1n[nH]c2ccccc12	24.4	> 100	78.3	> 100	42.2	> 100	28.7	> 100	12.9	83.2	39	> 100	4.59	83.6	5.91	> 100	15	> 100		
CCCCC(=O)OCC(=O)[C@]1(O)Cc2c(O)c3c(c(O)c2[C@@H](OC2CC(NC(=O)C(F)(F)F)C(O)C(C)O2)C1)C(=O)c1c(OC)cccc1C3=O (stereo not given in full)		2.62		3.02		12.2		1.64		3.88		2.19		17				2.48		> 73.6
Cc1ccc2c(=O)cc(-c3ccc(F)cc3)[nH]c2n1				> 100		> 100	31.3	> 100		86.5	36.8	> 100		> 100		> 100	33.6	> 100		> 100
NNC(=O)Nc1cccnc1		> 100		> 100		> 100		> 100		> 100		> 100		> 100						> 100
N#CC1C(C#N)C2(c3ccccc3)C(c3ccccc3)=NN(c3ccccc3)CC12 (stereo not given)		> 100		> 100		> 100		> 100				> 100		> 100		> 100		> 100		> 100
CN(C)C(=N)c1ccccc1		> 100		> 100		> 100				> 100		> 100						> 100		
COc1cc(Cc2cnc(/N=C3\C(=O)N(CN4CCN(c5c(F)cc6c(=O)c(C(=O)O)cn(C7CC7)c6c5OC)CC4C)c4ccc(F)cc43)nc2N)cc(OC)c1OC (stereo not given)	16	49.1	17.7	51.3			18.3	35.2	7.64	21.8	14.4	30.2	25.1	> 100	1.16	6.97	18.9	> 100	1.3	4.26
COC1(OC)CCC2C1C1CCC(OC)(OC)C21 (stereo not given)		> 50		> 50		> 50		> 50		> 50		> 50		> 50		> 50				> 50
